Measured values: ChEMBL document CHEMBL1155463 (J Med Chem, 2010)
Converted amounts (≈) assume the structure as drawn.

How the values were obtained:
physchem [1] = conditions: phosphate buffer, pH 9.9
Description: Thermodynamic solubility in 50 mM aqueous phosphate buffer of pH 9.9 at 22.5 degC by HPLC analysis

physchem [2] = experiment: physchem
Description: Ionization constant, pKa by spectrophotometry

physchem [3] = conditions: octanol/water, pH 7.4
physchem [4] = conditions: octanol/water
Description: Lipophilicity, log P of the compound

physchem [5] = conditions: aqueous solution, pH 1
Description: Chemical stability in aqueous solution at pH 1 after 2 hrs

For `CN(C)CC(C)(C)CCc1ccc(C(C)(C)C)cc1`, which solubility thermodynamic (physchem [1]) is on record?
The solubility thermodynamic was 0.004 mM (≈ 1.05 µg/mL).

With `CN(C)CCC(C)(C)Cc1ccc(C(C)(C)C)cc1` as the compound, how does the pKa (physchem [2]) read?
Its pKa is 9.5.

Which results are given for `CN(C)C1(CCCc2ccc(C(C)(C)C)cc2)COC1`?
logD (physchem [3]): 3.3; logP (physchem [4]): 3.6; solubility thermodynamic (physchem [1]): 0.21 mM (≈ 57.8 µg/mL); pKa (physchem [2]): 7.2

Which results are given for `CC1(C)CCN(Cc2ccc3c(c2)OCO3)C1`?
logD (physchem [3]): 1.4; logP (physchem [4]): 3.7; solubility thermodynamic (physchem [1]): 0.17 mM (≈ 39.7 µg/mL); pKa (physchem [2]): 9.7

Which results are given for `CC1(C)CCCCN1Cc1ccc2c(c1)OCO2`?
logD (physchem [3]): 1.1; logP (physchem [4]): 3.9; solubility thermodynamic (physchem [1]): 0.12 mM (≈ 29.7 µg/mL); pKa (physchem [2]): 10.2

Which results are given for `c1cc2c(cc1CN1CCCC1)OCO2`?
logD (physchem [3]): 0.2; logP (physchem [4]): 2.5; solubility thermodynamic (physchem [1]): 2.8 mM (≈ 575 µg/mL); pKa (physchem [2]): 9.7

Which logD (physchem [3]) does the source give for `c1cc2c(cc1CN1CCCCC13COC3)OCO2` here?
The logD was 2.2.

And the logP (physchem [4])?
The logP was 2.4.

What about the solubility thermodynamic (physchem [1]) of the same compound?
Its solubility thermodynamic is 2.9 mM (≈ 758 µg/mL).

And the pKa (physchem [2])?
Its pKa is 7.

Which logD (physchem [3]) does the source give for `O=C1CCCCN1Cc1ccc2c(c1)OCO2` here?
The logD was 1.6.

What about the logP (physchem [4]) of the same compound?
The logP was 1.6.

What about the solubility thermodynamic (physchem [1]) of the same compound?
The solubility thermodynamic was 27 mM (≈ 6300 µg/mL).

With `O=C1CCN1Cc1ccc2c(c1)OCO2` as the compound, how does the logD (physchem [3]) read?
The logD was 1.1.

And the logP (physchem [4])?
Its logP is 1.1.

What about the solubility thermodynamic (physchem [1]) of the same compound?
Its solubility thermodynamic is 10 mM (≈ 2050 µg/mL).

With `CN(C)CCCCc1ccc(C2(C)COC2)cc1` as the compound, how does the logD (physchem [3]) read?
The logD was 0.8.

What about the logP (physchem [4]) of the same compound?
The logP was 3.3.

What about the solubility thermodynamic (physchem [1]) of the same compound?
Its solubility thermodynamic is 18 mM (≈ 4450 µg/mL).

And the pKa (physchem [2])?
Its pKa is 9.9.

Which results are given for `CC1(C)CN(Cc2ccc3c(c2)OCO3)C1`?
logD (physchem [3]): 0.8; logP (physchem [4]): 3.1; solubility thermodynamic (physchem [1]): 1.3 mM (≈ 285 µg/mL); pKa (physchem [2]): 9.6

Which results are given for `CCc1ccc(CCCCN(C)C)cc1`?
logD (physchem [3]): 1.8; logP (physchem [4]): 4.3; solubility thermodynamic (physchem [1]): 0.25 mM (≈ 51.3 µg/mL); pKa (physchem [2]): 9.9

Which results are given for `CN(C)CCCCc1ccc(C2(F)COC2)cc1`?
logD (physchem [3]): -0.5; logP (physchem [4]): 2; solubility thermodynamic (physchem [1]): 24 mM (≈ 6030 µg/mL); pKa (physchem [2]): 9.9

For `CC1(C)CCCN1Cc1ccc2c(c1)OCO2`, which logD (physchem [3]) is on record?
Its logD is 0.9.

What about the logP (physchem [4]) of the same compound?
The logP was 3.5.

What about the solubility thermodynamic (physchem [1]) of the same compound?
Its solubility thermodynamic is 0.18 mM (≈ 42 µg/mL).

And the pKa (physchem [2])?
Its pKa is 10.

With `c1cc2c(cc1CN1CC3CC(C1)O3)OCO2` as the compound, how does the solubility thermodynamic (physchem [1]) read?
Its solubility thermodynamic is > 11 mM.

And the pKa (physchem [2])?
The pKa was 7.1.

With `c1cc2c(cc1CN1CCOCC1)OCO2` as the compound, how does the logD (physchem [3]) read?
Its logD is 1.5.

What about the logP (physchem [4]) of the same compound?
Its logP is 1.6.

And the solubility thermodynamic (physchem [1])?
The solubility thermodynamic was 36 mM (≈ 7970 µg/mL).

And the pKa (physchem [2])?
Its pKa is 7.

Which logD (physchem [3]) does the source give for `c1cc2c(cc1CN1CC3(COC3)C1)OCO2` here?
Its logD is 0.5.

What about the logP (physchem [4]) of the same compound?
The logP was 1.2.

What about the solubility thermodynamic (physchem [1]) of the same compound?
Its solubility thermodynamic is 100 mM (≈ 23300 µg/mL).

What about the pKa (physchem [2]) of the same compound?
The pKa was 8.

With `CN(C)CCCCc1ccc(C2(O)COC2)cc1` as the compound, how does the solubility thermodynamic (physchem [1]) read?
The solubility thermodynamic was 300 mM (≈ 74800 µg/mL).

And the pKa (physchem [2])?
Its pKa is 9.6.

What does the source list for `c1cc2c(cc1CN1CCCC3(COC3)C1)OCO2`?
logD (physchem [3]): 1.7; logP (physchem [4]): 2.3; solubility thermodynamic (physchem [1]): 7.7 mM (≈ 2010 µg/mL); pKa (physchem [2]): 7.9

For `O=C1CCN(Cc2ccc3c(c2)OCO3)C1`, which logD (physchem [3]) is on record?
Its logD is 0.1.

And the logP (physchem [4])?
The logP was -0.1.

And the solubility thermodynamic (physchem [1])?
Its solubility thermodynamic is 19 mM (≈ 4170 µg/mL).

What about the pKa (physchem [2]) of the same compound?
The pKa was 6.1.

What does the source list for `c1cc2c(cc1CN1CCC3(CC1)COC3)OCO2`?
logD (physchem [3]): 1; logP (physchem [4]): 2; solubility thermodynamic (physchem [1]): 5.4 mM (≈ 1410 µg/mL); pKa (physchem [2]): 8.3

What does the source list for `CN(C)CCCCc1ccc(C(C)(C)C)cc1`?
logP (physchem [4]): 5; solubility thermodynamic (physchem [1]): < 0.004 mM

Which solubility thermodynamic (physchem [1]) does the source give for `c1cc2c(cc1CN1CCCCC1)OCO2` here?
Its solubility thermodynamic is 2.1 mM (≈ 460 µg/mL).

What about the pKa (physchem [2]) of the same compound?
Its pKa is 9.6.

Which results are given for `c1cc2c(cc1CN1CCC13COC3)OCO2`?
logD (physchem [3]): 1.3; logP (physchem [4]): 1.3; solubility thermodynamic (physchem [1]): 6 mM (≈ 1400 µg/mL); pKa (physchem [2]): 6.2

Which results are given for `c1cc2c(cc1CN1CCC3(COC3)C1)OCO2`?
logD (physchem [3]): 0.7; logP (physchem [4]): 1.5; solubility thermodynamic (physchem [1]): 3 mM (≈ 742 µg/mL); pKa (physchem [2]): 8.1

Which logD (physchem [3]) does the source give for `CC1(C)CCN(Cc2ccc3c(c2)OCO3)CC1` here?
Its logD is 2.3.

What about the logP (physchem [4]) of the same compound?
Its logP is 4.4.

And the solubility thermodynamic (physchem [1])?
The solubility thermodynamic was 0.89 mM (≈ 220 µg/mL).

What about the pKa (physchem [2]) of the same compound?
Its pKa is 9.5.

What does the source list for `CN(C)CCCC1(c2ccc(C(C)(C)C)cc2)COC1`?
logD (physchem [3]): 1.7; logP (physchem [4]): 3.9; solubility thermodynamic (physchem [1]): 0.98 mM (≈ 270 µg/mL); pKa (physchem [2]): 9.6

Which results are given for `O=C1CCCN1Cc1ccc2c(c1)OCO2`?
logD (physchem [3]): 1.2; logP (physchem [4]): 1.2; solubility thermodynamic (physchem [1]): 6.8 mM (≈ 1490 µg/mL)

For `CC1(C)CCCN(Cc2ccc3c(c2)OCO3)C1`, which logD (physchem [3]) is on record?
Its logD is 2.3.

What about the logP (physchem [4]) of the same compound?
The logP was 4.3.

And the solubility thermodynamic (physchem [1])?
Its solubility thermodynamic is 0.053 mM (≈ 13.1 µg/mL).

And the pKa (physchem [2])?
Its pKa is 9.4.

For `CN(C)CCCC(C)(C)c1ccc(C(C)(C)C)cc1`, which solubility thermodynamic (physchem [1]) is on record?
The solubility thermodynamic was < 0.004 mM.

With `c1cc2c(cc1CN1CCCC13COC3)OCO2` as the compound, how does the logD (physchem [3]) read?
Its logD is 1.9.

What about the logP (physchem [4]) of the same compound?
The logP was 1.9.

And the solubility thermodynamic (physchem [1])?
Its solubility thermodynamic is 8.5 mM (≈ 2100 µg/mL).

What about the pKa (physchem [2]) of the same compound?
Its pKa is 6.3.

What does the source list for `CC1(C)CCN1Cc1ccc2c(c1)OCO2`?
logD (physchem [3]): 0.1; logP (physchem [4]): 2.8; solubility thermodynamic (physchem [1]): 1.7 mM (≈ 373 µg/mL); pKa (physchem [2]): 10.1

Which logD (physchem [3]) does the source give for `O=C1CCCN(Cc2ccc3c(c2)OCO3)C1` here?
The logD was 0.1.

And the logP (physchem [4])?
Its logP is 0.5.

And the solubility thermodynamic (physchem [1])?
Its solubility thermodynamic is 9 mM (≈ 2100 µg/mL).

What about the pKa (physchem [2]) of the same compound?
Its pKa is 7.6.

Which logD (physchem [3]) does the source give for `CN(C)CCC1(Cc2ccc(C(C)(C)C)cc2)COC1` here?
Its logD is 1.7.

What about the logP (physchem [4]) of the same compound?
The logP was 3.5.

And the solubility thermodynamic (physchem [1])?
The solubility thermodynamic was 15 mM (≈ 4130 µg/mL).

What about the pKa (physchem [2]) of the same compound?
The pKa was 9.2.

For `c1cc2c(cc1CN1CCC1)OCO2`, which logD (physchem [3]) is on record?
The logD was -0.1.

And the logP (physchem [4])?
Its logP is 2.1.

And the solubility thermodynamic (physchem [1])?
Its solubility thermodynamic is 13 mM (≈ 2490 µg/mL).

And the pKa (physchem [2])?
The pKa was 9.5.

Which logD (physchem [3]) does the source give for `CN(C)CCCCc1ccc(C2COC2)cc1` here?
The logD was -0.1.

What about the logP (physchem [4]) of the same compound?
The logP was 2.4.

What about the solubility thermodynamic (physchem [1]) of the same compound?
The solubility thermodynamic was 17 mM (≈ 3970 µg/mL).

What about the pKa (physchem [2]) of the same compound?
Its pKa is 9.9.

What about the remaining at 2 h (physchem [5]) of the same compound?
The remaining at 2 h was 83%.
